In patent US20230172920A1, “DOSING REGIMEN FOR TREATING A DISEASE MODULATED BY CSF-1R” (Novartis AG, priority 2020, published 2023):
Where two headings read alike, the source gives them in different places.

Experiments:
[1] = test system: MC38 syngeneic mouse model; assay: MC38 syngeneic mouse model, tumor growth; format: in vivo, C57BL/6N mice; conditions: repeat with suboptimal anti-PD-1 dose (5 mg/kg); BLZ945 4 days on/3 days off
Procedure: In another set of experiments using the MC38 syngeneic mouse model in C57BL/6N mice two different schedules of BLZ945 were compared for efficacy (FIG. 3) using once weekly dosing of BLZ945 and 4 days on/3 days off dosing of BLZ945 alone and in combination with anti-PD-1. […] On day 14 post treatment start, there was a trend of tumor growth inhibition, corresponding to a % T/C vs. control of 28%.
Doses of 200 mg/kg BLZ945 and 10 mg/kg anti-PD-1 were given on the schedules indicated and tumor volumes measured on day 14 after study initiation. Statistical significance was calculated using one-way ANOVA with post hoc Dunnett's test for comparison of treatment versus control group.
Efficacy testing was repeated with a suboptimal dose of anti-PD-1 (5 mg/kg) in order to test for an additive effect of BLZ945 to be observed when given in combination.

[2] = AST/ALT elevation across single agent dose groups (clinical data, CTCAE); format: in vivo, human
Procedure: A comparison of AST and ALT elevation across single agent dose groups for the compound of Formula (I) was performed for the once per week (Q1WV) dosing regimen and the 4 days on/10 days off dosing regimen over a range of dosages. FIGS. 6 and 7 show the AST and ALT elevations, respectively. The Common Terminology Criteria for Adverse Events (CTCAE) was used to evaluate AST and ALT levels.

microglia [3] = assay: CNS microglia clearance in mice, Iba1/Aif-1 staining of cortex (RD-2019-00100); format: in vivo; conditions: for microglial depletion / microglial reduction: 5 consecutive days; for microglia brain repopulation: 169 mg/kg qd 5 days; for microglia depleted in the cortex: 169 mg/kg qd
Procedure: (§1) Several studies were performed to understand PK/PD relationships for CNS microglia clearance in mice. In the first study (RD-2019-00100) mice were treated once daily (qd) for between 1 and 5 consecutive days with a dose of 169 mg/kg BLZ945. Additionally, two dose groups received 169 mg/kg BLZ945 for 5 consecutive days followed by either 3 or 7 days of drug withdrawal (washout). […] Pharmacokinetic analysis was performed on blood and brain samples taken from each group at 3 hours after the final dose on the indicated necropsy day. […] Exposures dropped by more than 1000-fold following the washout period (FIG. 8 B).
(§2) FIG. 8: (A) Microglial depletion in the cortex, as assessed by Iba1/Aif-1 immunohistological staining at necropsy. Sections were analyzed for total number of microglia cell bodies per sample area. Values are group means±SD (n=3). (B) Exposure of BLZ945 in blood and brain 3 hours after the last dose on the day of necropsy. Values are group means (n=3).
(§3) In a follow-up study (RD-2019-00100), mice were treated with BLZ945 for 5 consecutive days with a range of doses from 7 to 169 mg/kg. The two lowest doses of 7 mg/kg and 20 mg/kg were ineffective for microglial depletion. […] Here the ratio of brain to blood exposures was approximately 30% at the four lowest doses and approximately 55% at the highest dose (FIG. 9 B).
(§4) FIG. 9: Dose-dependent reduction of microglia. (A) Mice were treated for 5 consecutive days with BLZ945 at the indicated doses. Samples were analyzed histologically by Iba1/Aif-1 staining and quantified for total microglia cell bodies per sample area. Data are group means±SD (n=3). (B) Exposure of BLZ945 in blood and brain following 5 consecutive days of dosing at multiple doses. Values are group means±SD (n=3).

[4] = Blood and brain exposure in mice (RD-2019-00100); format: in vivo; conditions: for Kp at 5 days: read-out: ratio of brain to blood exposures
Procedure: as §1, §2, §3, §4

microglia [5] = assay: Microglial depletion in SOD1G93A mice with b.i.d. dosing (RD-2019-00111); format: in vivo, SOD1G93A mouse; conditions: 5 consecutive days
Procedure: Dosing was examined in the SOD1G93A mouse model of ALS, the most commonly used rodent ALS model (RD-2019-00111). Twice daily dosing (b.i.d.) was examined after 5 consecutive dosing days. Microglia were depleted in the cortex by approximately 25% and 75% following treatment with 50 mg/kg and 80 mg/kg BLZ945. BLZ945 dosed b.i.d. at 10 mg/kg was not effective (FIG. 10 A).
FIG. 10: BLZ945-mediated microglial depletion in the cortex, as assessed by Iba1/Aif-1 immunohistological staining (A) or in spinal cord by qPCR analysis (B) Values are group means±SD (n=3). (C and D) Exposure of BLZ945 in blood and CNS brain and spinal cord 3 hours after the final dose of the study.

SMILES: CNC(=O)c1cc(Oc2ccc3nc(N[C@@H]4CCCC[C@H]4O)sc3c2)ccn1 [BLZ945, 4-((2-(((1R,2R)-2-hydroxycyclohexyl)amino)benzo[d]thiazol-6-yl)oxy)-N-methylpicolinamide]
- tumor growth inhibition [1]: not either of the single agent groups dosed with BLZ945 or anti-PD-1 resulted in a statistically significant tumor growth inhibition
- AST and ALT elevations ([2]; 4 days on/10 days off compared with Q1W dosing regimen, single agent): better controlled
- ALT/AST levels ([2]; 4 days on/10 days off schedule): recover to baseline before next dose
- AST and ALT levels ([2]; Q1W dose, even at lowest dose of 300 mg): spikes above the G2 level
- microglial depletion (microglia [3]; 7 mg/kg): ineffective
- microglial depletion (microglia [3]; 20 mg/kg): ineffective
- microglial reduction (microglia [3]; 60 mg/kg): 25%
- microglial reduction (microglia [3]; 100 mg/kg): 60%
- microglia brain repopulation (microglia [3]; then 3 days washout): ~80 % of vehicle
- microglia brain repopulation (microglia [3]; then 7 days washout): complete repopulation
- microglia depleted in the cortex (microglia [3]; day 2): approximately 50%
- microglia depleted in the cortex (microglia [3]; day 5): approximately 90%
- microglial reduction (microglia [3]; 169 mg/kg): 100%
- drop of exposures following washout ([4]; 169 mg/kg qd 5 days, then 3 or 7 days washout): more than 1000 fold
- accumulation with daily dosing (blood and brain exposures) ([4]; 169 mg/kg qd, consecutive dosing days): lack of accumulation
- dose dependence of blood and brain exposures ([4]; 7 to 169 mg/kg, 5 consecutive days): linear increases in both blood and brain exposures with increased doses
- Kp at 3 h ([4]; mouse, brain relative to blood, 169 mg/kg qd, 1-5 days, 3 hours after final dose): ~0.5
- Kp at 5 days ([4]; mouse, brain relative to blood, four lowest doses (7-100 mg/kg), 5 consecutive days): ~0.3
- Kp at 5 days ([4]; mouse, brain relative to blood, highest dose (169 mg/kg), 5 consecutive days): ~0.55
- microglia depletion in the cortex (microglia [5]; 10 mg/kg b.i.d.): not effective
- reduction of microglial markers in spinal cord (qPCR) (microglia [5]; 10 mg/kg b.i.d.): small but non-significant effect
- microglia depleted in spinal cord (qPCR of microglial markers) (microglia [5]; 50 mg/kg b.i.d.): approximately 55%
- microglia depleted in the cortex (microglia [5]; 50 mg/kg b.i.d.): approximately 25%
- microglia depleted in spinal cord (qPCR of microglial markers) (microglia [5]; 80 mg/kg b.i.d.): ~85%
- microglia depleted in the cortex (microglia [5]; 80 mg/kg b.i.d.): ~75%
